Measured values: PMC10890530, “Meirols A–C: Bioactive Catecholic Compounds from the Marine-Derived Fungus Meira sp. 1210CH-42” (Marine Drugs, 2024)
Where two headings read alike, the source gives them in different places.

Legend:
[1] = DPPH radical scavenging activity assay; details: half maximal effective concentration; triplicate; read-out: DPPH Radical Scavenging Activity (EC50 ± SD)
Description: The DPPH radical scavenging activities of 1–4 were determined by the reported method. In a 96-well plate, 100 μL of sample solution (in MeOH) was mixed with 100 μL of DPPH solution (0.16 mM in MeOH), shaken several times, and then incubated at room temperature for 30 min. The absorbance at 517 nm was recorded. Ascorbic acid was used as the positive control, and the experiments were performed in triplicate.

[2] = test system: RPMI-8402, T cell acute lymphocytic leukemia; experiment: Cytotoxicity assay, RPMI-8402 blood cancer cell line; type: cell-based; details: Homo sapiens, 50% growth inhibitory concentration, triplicate, read-out: Cytotoxic Activity (GI50 ± SD, μM) RPMI-8402
Description: (§1) NMR spectra were acquired with a Bruker AVANCE III 600 spectrometer (Bruker Biospin GmbH, Rheinstetten, Germany) with a 3 mm probe operating at 600 MHz (^1H) and 150 MHz (^13C). Chemical shifts were expressed in ppm with reference to the solvent peaks (δH 3.31 and δC 49.15 ppm for CD3OD). UV spectra were recorded with a Shimadzu UV-1650PC spectrophotometer (Shimadzu Corporation, Kyoto, Japan). IR spectra were obtained on an OPUS FT/IR-ALPHA II spectrophotometer (Bruker OPTIK GmbH & Co. KG, Ettlingen, Germany). Optical rotations were measured with a Rudolph analytical Autopol III S2 polarimeter (Rudolph Research Analytical, Hackettstown, NJ, USA). LR-ESIMS data were obtained with an ISQ EM mass spectrometer. HR-ESIMS data were obtained with a Waters SYNPT G2 Q-TOF mass spectrometer (Waters Corporation, Milford, MA, USA) at the Korea Basic Science Institute (KBSI) in Cheongju, Republic of Korea. ECD spectra were recorded with a JASCO J-1500 circular dichroism spectrometer (JASCO Corporation, Tokyo, Japan) at the Center for Research Facilities, Changwon National University, in Changwon, Republic of Korea. HPLC was performed using a BLS-Class pump (Teledyne SSI, Inc., State College, PA 16803, USA) with a Shodex RI-201H refractive index detector (Shoko Scientific Co., Ltd., Yokohama, Japan). Columns for HPLC were YMC-Triart C18 (250 mm × 10 mm, 5 μm), YMC-Triart C8 (250 mm × 10 mm, 5 μm), and YMC-CHIRAL PREP CD PM (250 mm × 4.6 mm, S-10 μm). RP silica gel (YMC-Gel ODS-A, 12 nm, S-75 μm) was used for open-column chromatography. Organic solvents were purchased as HPLC grade, and ultrapure waters were obtained from the Milipore Mili-Q Direct 8 system. The reagents used in the bioassay were purchased from Sigma-Aldrich and Tokyo Chemical Industry. Cancer cell lines were purchased from the Japanese Cancer Research Resources Bank (JCRB) (NUGC-3, JCRB Cell Bank/Cat. # JCRB0822), the DSMZ-German Collection of Microorganisms and Cell Cultures (RPMI-8402, DSMZ/Cat # ACC 290; WSU-DLCL2, DSMZ/Cat # ACC 575), and the American Type Culture Collection (ATCC) (PC-3, ATCC/Cat. # CRL-1435; MDA-MB-231, ATCC/Cat. # HTB-26; ACHN, ATCC/Cat. # CRL-1611; NCI-H23, ATCC/Cat. # CRL-5800; HCT-15, ATCC/Cat. # CCL-225; HL-60, ATCC/Cat. # CCL-240; Raji, ATCC/Cat # CCL-86; K562, ATCC/Cat # CCL-243; NALM6, ATCC/Cat # CRL-3273; U266, ATCC/Cat # TIB-196).
(§2) The cytotoxic activities of 1–4 were measured using the CellTiter-Glo luminescent cell viability assay (Promega, Madison, WI, USA) and conducted by the […], as previously described. The luminescence signal was quantified using a GloMax-Multi Detection System (Promega, Madison, WI, USA), and GI50 values were determined utilizing a relative GI50 model in GraphPad Prism (GraphPad, San Diego, CA, USA). Doxorubicin was used as the positive control.

[3] = test system: NALM6, B cell acute lymphocytic leukemia; experiment: Cytotoxicity assay, NALM6 blood cancer cell line; type: cell-based; details: triplicate, read-out: Cytotoxic Activity (GI50 ± SD, μM) NALM6
Description: as §1, §2

α-glucosidase = α-glucosidase inhibitory activity assay (pNPG hydrolysis); type: biochemical; details: 50% inhibitory concentration; triplicate; read-out: α-Glucosidase Inhibitory Activity (IC50 ± SD)
Description: The α-glucosidase inhibitory activity was determined by measuring the absorbance increase resulting from the hydrolysis of p-nitrophenyl-α-D-glucopyranoside (pNPG, TCI) by α-glucosidase at 405 nm using a microplate reader, according to the reference to previously reported literature. The 130 μL sample solution (in 0.1 mM PBS) with the 30 μL α-glucosidase solution (0.2 U/mL) was incubated at 37 °C for 10 min. Subsequently, 40 μL of 5 mM pNPG was added. The reaction mixture was further incubated at 37 °C for 20 min. The α-glucosidase inhibitory activity was determined using a microplate reader at 405 nm. The negative control was prepared by substituting PBS buffer for the sample in the same way as the test.

[4] = 50% growth inhibitory concentration
[5] = Homo sapiens, NALM-6, 50% growth inhibitory concentration

Row | SMILES | EC50 [1] [µM] | IC50 (α-glucosidase) [µM] | GI50 [2] [µM] | GI50 [3, 4] [µM] | GI50 [3, 5] [µM]
1 | O=C1O[C@H]([C@@H](O)CO)C(O)=C1O [Ascorbic acid, reference compound] | 7.81 ± 0.25 | – | – | – | –
2 | O=C1c2ccc(O)c(O)c2C[C@@H]1O [Compound 4, meirol C] | 6.2 ± 0.12 | > 555 | > 30 | – | > 30
3 | COc1cccc2c1C(=O)c1c(O)c3c(c(O)c1C2=O)C[C@@](O)(C(=O)CO)C[C@@H]3O[C@H]1C[C@H](N)[C@H](O)[C@H](C)O1 [Doxorubicin, reference compound] | – | – | 0.015 ± 0.0013 | – | 0.003 ± 0.0006

Continued by falling EC50 [1], values first:

Row | EC50 [1] [µM] | IC50 (α-glucosidase) [µM] | SMILES | GI50 [2] [µM] | GI50 [3, 4] [µM] | GI50 [3, 5] [µM]
4 | 7.47 ± 0.13 | 184 ± 2.93 | O=C1CCc2c1ccc(O)c2O [Compound 1, 4,5-dihydroxyindan-1-one] | 21 ± 0.47 | 9.47 ± 0.41 | 9.48
5 | 6.82 ± 0.06 | 199.7 ± 1.87 | O=C1NCc2c1ccc(O)c2O [Compound 2, 4,5-dihydroxyisoindolin-1-one] | > 30 | 29.6 ± 2.27 | 29.4
6 | 6.01 ± 0.07 | 367.4 ± 3.01 | O=C1C[C@@H](O)c2c1ccc(O)c2O [Compound 3, meirol B] | > 30 | – | > 30
